In general, EC50 refers to the concentration needed to bring the measured effect to its halfway point.

Test [1] addresses Receptor-type tyrosine-protein kinase FLT3 (Homo sapiens, UniProt P36888). The experiment in a line: NanoBRET assay (FLT3, SGC Frankfurt).
Test [2] concerns the target Tyrosine-protein kinase JAK1 (Homo sapiens, UniProt P23458). The experiment in a line: NanoBRET assay (JAK1, SGC Frankfurt).
In test [3] the target is Tyrosine-protein kinase JAK2 (Homo sapiens, UniProt O60674). As to the kind of experiment: NanoBRET assay (JAK2, SGC Frankfurt).

Structures are written as SMILES.

Chain of Tyrosine-protein kinase JAK1 (P23458 whole entry): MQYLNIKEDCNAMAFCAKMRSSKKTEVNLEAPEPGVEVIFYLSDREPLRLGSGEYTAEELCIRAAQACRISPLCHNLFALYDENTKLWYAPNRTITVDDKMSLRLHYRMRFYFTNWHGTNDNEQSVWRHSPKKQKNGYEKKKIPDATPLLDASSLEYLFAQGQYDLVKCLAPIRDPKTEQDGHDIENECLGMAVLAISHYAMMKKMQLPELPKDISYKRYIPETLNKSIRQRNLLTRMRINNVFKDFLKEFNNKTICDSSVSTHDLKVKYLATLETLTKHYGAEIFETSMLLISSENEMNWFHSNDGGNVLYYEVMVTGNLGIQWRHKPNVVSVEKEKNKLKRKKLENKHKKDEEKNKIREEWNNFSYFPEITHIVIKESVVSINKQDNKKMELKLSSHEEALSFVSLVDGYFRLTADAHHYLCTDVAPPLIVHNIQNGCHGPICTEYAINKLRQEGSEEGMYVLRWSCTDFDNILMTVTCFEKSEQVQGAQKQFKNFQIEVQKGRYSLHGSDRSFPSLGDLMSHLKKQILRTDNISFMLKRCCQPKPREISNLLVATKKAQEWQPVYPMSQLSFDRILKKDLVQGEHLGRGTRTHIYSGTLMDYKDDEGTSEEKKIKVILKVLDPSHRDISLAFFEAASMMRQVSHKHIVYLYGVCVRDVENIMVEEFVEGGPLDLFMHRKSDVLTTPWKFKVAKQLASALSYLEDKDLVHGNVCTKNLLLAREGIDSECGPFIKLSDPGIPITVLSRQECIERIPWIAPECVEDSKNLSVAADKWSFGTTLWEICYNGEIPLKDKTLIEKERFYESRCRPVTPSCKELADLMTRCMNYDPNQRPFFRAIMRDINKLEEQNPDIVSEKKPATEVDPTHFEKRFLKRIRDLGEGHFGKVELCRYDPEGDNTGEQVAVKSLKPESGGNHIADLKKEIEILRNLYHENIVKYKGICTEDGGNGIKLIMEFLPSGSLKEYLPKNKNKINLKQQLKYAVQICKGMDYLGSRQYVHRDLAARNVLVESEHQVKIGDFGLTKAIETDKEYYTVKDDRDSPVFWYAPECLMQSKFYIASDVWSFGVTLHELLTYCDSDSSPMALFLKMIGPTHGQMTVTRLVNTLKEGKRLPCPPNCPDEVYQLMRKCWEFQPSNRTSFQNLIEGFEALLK
Chain of Tyrosine-protein kinase JAK2 (O60674 whole entry): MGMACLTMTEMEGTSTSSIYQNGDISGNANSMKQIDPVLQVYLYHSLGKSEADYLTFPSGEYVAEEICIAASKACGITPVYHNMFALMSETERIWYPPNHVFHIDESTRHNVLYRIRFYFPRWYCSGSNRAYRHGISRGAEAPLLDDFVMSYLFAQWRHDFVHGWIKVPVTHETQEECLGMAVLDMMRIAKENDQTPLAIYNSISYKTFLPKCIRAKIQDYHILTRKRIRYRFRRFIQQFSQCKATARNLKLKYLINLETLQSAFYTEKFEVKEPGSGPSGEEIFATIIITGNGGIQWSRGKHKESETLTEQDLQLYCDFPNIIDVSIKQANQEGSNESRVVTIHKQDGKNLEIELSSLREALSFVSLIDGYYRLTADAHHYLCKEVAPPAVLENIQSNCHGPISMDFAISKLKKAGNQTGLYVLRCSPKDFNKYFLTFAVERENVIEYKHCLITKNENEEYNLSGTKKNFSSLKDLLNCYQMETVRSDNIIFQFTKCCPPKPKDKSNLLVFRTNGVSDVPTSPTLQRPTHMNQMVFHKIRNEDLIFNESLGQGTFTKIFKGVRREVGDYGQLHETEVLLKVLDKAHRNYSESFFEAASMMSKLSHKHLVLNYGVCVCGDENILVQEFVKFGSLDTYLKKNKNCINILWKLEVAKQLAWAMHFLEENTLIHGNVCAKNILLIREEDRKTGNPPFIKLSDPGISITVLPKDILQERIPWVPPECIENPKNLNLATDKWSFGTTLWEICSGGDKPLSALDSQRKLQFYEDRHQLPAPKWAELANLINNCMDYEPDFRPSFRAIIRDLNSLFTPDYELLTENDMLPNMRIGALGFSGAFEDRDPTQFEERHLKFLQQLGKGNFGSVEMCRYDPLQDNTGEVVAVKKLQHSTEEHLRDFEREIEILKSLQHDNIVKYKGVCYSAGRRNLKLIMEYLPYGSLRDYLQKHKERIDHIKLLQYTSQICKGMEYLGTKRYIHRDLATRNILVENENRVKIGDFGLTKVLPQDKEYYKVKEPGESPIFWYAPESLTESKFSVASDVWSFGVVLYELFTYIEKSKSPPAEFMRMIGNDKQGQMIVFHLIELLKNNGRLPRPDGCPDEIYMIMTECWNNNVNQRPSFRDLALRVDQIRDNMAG
Chain of Receptor-type tyrosine-protein kinase FLT3 (P36888 whole entry): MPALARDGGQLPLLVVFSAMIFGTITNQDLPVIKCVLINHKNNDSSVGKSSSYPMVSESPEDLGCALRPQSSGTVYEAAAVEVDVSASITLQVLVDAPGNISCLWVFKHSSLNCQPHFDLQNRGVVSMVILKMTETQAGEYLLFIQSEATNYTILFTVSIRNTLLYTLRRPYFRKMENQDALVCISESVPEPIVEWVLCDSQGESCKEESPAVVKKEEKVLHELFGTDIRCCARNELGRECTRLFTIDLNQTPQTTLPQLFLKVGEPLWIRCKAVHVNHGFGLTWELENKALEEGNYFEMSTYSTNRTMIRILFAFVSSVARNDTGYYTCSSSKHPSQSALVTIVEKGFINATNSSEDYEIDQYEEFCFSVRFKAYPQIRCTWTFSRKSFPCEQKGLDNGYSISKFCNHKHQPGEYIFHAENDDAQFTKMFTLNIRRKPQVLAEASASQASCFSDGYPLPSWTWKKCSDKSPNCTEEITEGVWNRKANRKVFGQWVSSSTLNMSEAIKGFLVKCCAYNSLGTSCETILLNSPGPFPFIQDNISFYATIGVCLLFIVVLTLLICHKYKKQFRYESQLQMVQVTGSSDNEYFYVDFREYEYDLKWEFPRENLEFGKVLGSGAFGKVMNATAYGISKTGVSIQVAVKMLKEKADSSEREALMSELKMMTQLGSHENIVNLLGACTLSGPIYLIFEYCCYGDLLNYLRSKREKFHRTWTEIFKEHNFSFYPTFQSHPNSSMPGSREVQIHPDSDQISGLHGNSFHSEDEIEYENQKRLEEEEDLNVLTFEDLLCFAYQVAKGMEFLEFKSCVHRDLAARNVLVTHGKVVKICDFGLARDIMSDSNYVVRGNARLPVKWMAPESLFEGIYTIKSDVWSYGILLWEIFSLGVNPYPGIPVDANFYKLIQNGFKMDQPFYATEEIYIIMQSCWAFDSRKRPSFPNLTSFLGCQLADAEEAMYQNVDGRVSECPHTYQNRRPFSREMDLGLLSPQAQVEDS

As for `CN(C(=O)c1cnn2cccnc12)c1cc2c(cc1N1CCOCC1)C(=O)N(C[C@@H](F)C(C)(C)O)C2`, the figures for the EC50 in test [1], in test [2] and in test [3] were 3.6 µM (not active), > 50 µM (not active) and > 50 µM (not active), respectively.
